Laboratory results: US20260053811A1, “METHODS OF TREATING HYPERTENSION IN OBESE SUBJECTS” (Mineralys Therapeutics, Inc., priority 2022, published 2026)

Test system: hypertensive subjects
Assay: 24-hour ambulatory blood pressure monitoring (ABPM), incl. nighttime dip
Type: in vivo, human
Conditions: Part 1; for LSM Δ with Placebo, 24-hr DBP (ABPM, ANCOVA) / LSM Δ with Placebo, 24-hr Mean MAP (ABPM, ANCOVA) / LSM Δ with Placebo, 24-hr SBP (ABPM, ANCOVA) / LSM Δ with Placebo, Daytime Mean DBP (ABPM, ANCOVA) / LSM Δ with Placebo, Daytime Mean SBP (ABPM, ANCOVA) / LSM Δ with Placebo, Mean Central DBP (ABPM, ANCOVA) / LSM Δ with Placebo, Mean Central Mean BP (ABPM, ANCOVA) / LSM Δ with Placebo, Mean Central SBP (ABPM, ANCOVA) / LSM Δ with Placebo, Nighttime Mean DBP (ABPM, ANCOVA) / LSM Δ with Placebo, Nighttime Mean SBP (ABPM, ANCOVA): End of Treatment, FAS post-hoc
Procedure: Ambulatory blood pressure monitoring was accomplished with an ambulatory blood pressure monitoring device that consists of a blood pressure cuff worn on a subject's arm attached to a small recording device that is typically attached to the subject's belt or waistband.
The ABPM device is worn for 24 hours. Throughout that period, the device records the subject's blood pressure at regular intervals, during the subject's routine daily activities and while they are sleeping. The ABPM thus provides a complete record of the subject's blood pressure over a 24-hour period.
24-hour ABPM was measured in the clinic at baseline and Study Week 7. If, for any reason, the ABPM procedure was deemed a failure at the end of Study Week 7, it may have been repeated at Study Week 8 and therefore no imputation was employed regardless of use of rescue medications. Additionally, ABPM was also collected at the end of Study Week 4 in Part 2. If a repeat test was performed, it supersedes the original test results for that visit.
Specific derived variables based on ABPM measurements include mean 24-hour, mean Daytime, and mean Nighttime of SBP, DBP, and heart rate.
Change from baseline to Week 7 in 24-hour mean SBP (and DBP) based on ABPM will be analyzed using an ANCOVA with a term for treatment group and a baseline mean 24-hour value as a covariate.
The nighttime dip is defined as
100%×(mean daytime SBP−mean nighttime SBP)/mean daytime SBP
It is expressed as a percentage and is summarized by treatment group and visit using descriptive statistics. In addition, the number and percentage of subjects with nighttime dip in each of the dipper categories (Bloomfield & Park, 2015) is presented by treatment group and visit. The categories are: • (a) <10% • (b) 10-20% inclusive • (c) >20%
Secondary endpoints of this study were: • (a) Change in 24-hour ambulatory blood pressure monitoring (ABPM) parameters (systolic and diastolic) from baseline to the end of Study Week 7. • (b) Change in office-measured SBP from baseline to the end of Study Weeks 1, 2, 3, 4, 5, 6, and 7. • (c) Change in office-measured diastolic blood pressure (DBP) from baseline to the end of Study Weeks 1, 2, 3, 4, 5, 6, 7, and 8. • (d) Proportion of subjects who achieve office-measured BP of ≤130/80 mm Hg by the end of Study Week 8.

CC(=O)N[C@H]1CC[C@H](NC(=O)CN2CCN(c3nncc(-c4ccc(C)cc4)n3)CC2)CC1 [Compound A HBr]
LSM Δ with Placebo, 24-hr DBP (ABPM, ANCOVA) (12.5 mg BID): −4.24 mmHg
LSM Δ with Placebo, 24-hr Mean MAP (ABPM, ANCOVA) (12.5 mg BID): −4.58 mmHg
LSM Δ with Placebo, 24-hr SBP (ABPM, ANCOVA) (12.5 mg BID): −4.76 mmHg
LSM Δ with Placebo, Daytime Mean DBP (ABPM, ANCOVA) (12.5 mg BID): −4.19 mmHg
LSM Δ with Placebo, Daytime Mean SBP (ABPM, ANCOVA) (12.5 mg BID): −4.96 mmHg
LSM Δ with Placebo, Mean Central DBP (ABPM, ANCOVA) (12.5 mg BID): −4.85 mmHg
LSM Δ with Placebo, Mean Central Mean BP (ABPM, ANCOVA) (12.5 mg BID): −6.08 mmHg
LSM Δ with Placebo, Mean Central SBP (ABPM, ANCOVA) (12.5 mg BID): −7.19 mmHg
LSM Δ with Placebo, Nighttime Mean DBP (ABPM, ANCOVA) (12.5 mg BID): −3.92 mmHg
LSM Δ with Placebo, Nighttime Mean SBP (ABPM, ANCOVA) (12.5 mg BID): −3.9 mmHg
24-hr Mean DBP (ABPM), Mean (SD) (12.5 mg BID, EoT, FAS): 77.63 (11.03) mmHg
24-hr Mean MAP (ABPM), Mean (SD) (12.5 mg BID, EoT, FAS): 105.41 (12.62) mmHg
24-hr Mean SBP (ABPM), Mean (SD) (12.5 mg BID, EoT, FAS): 133.19 (14.86) mmHg
Daytime Mean DBP (ABPM), Mean (SD) (12.5 mg BID, EoT, FAS): 79.69 (10.81) mmHg
Daytime Mean SBP (ABPM), Mean (SD) (12.5 mg BID, EoT, FAS): 135.38 (14.97) mmHg
Nighttime Mean DBP (ABPM), Mean (SD) (12.5 mg BID, EoT, FAS): 72.44 (12.25) mmHg
Nighttime Mean SBP (ABPM), Mean (SD) (12.5 mg BID, EoT, FAS): 126.81 (16.69) mmHg
Subjects with nighttime dip 10-20% in 24-hour systolic ABPM (12.5 mg BID, EoT, FAS): 5 (31.3) n (%)
Subjects with nighttime dip <10% in 24-hour systolic ABPM (12.5 mg BID, EoT, FAS): 11 (68.8) n (%)
Subjects with nighttime dip >20% in 24-hour systolic ABPM (12.5 mg BID, EoT, FAS): 0 n (%)
24-hr Mean DBP (ABPM) CFB to EoT, Mean (SD) (12.5 mg BID, FAS): −5.38 (8.59) mmHg
24-hr Mean MAP (ABPM) CFB to EoT, Mean (SD) (12.5 mg BID, FAS): −5.53 (10.63) mmHg
24-hr Mean SBP (ABPM) CFB to EoT, Mean (SD) (12.5 mg BID, FAS): −5.69 (12.90) mmHg
Daytime Mean DBP (ABPM) CFB to EoT, Mean (SD) (12.5 mg BID, FAS): −4.25 (9.64) mmHg
Daytime Mean SBP (ABPM) CFB to EoT, Mean (SD) (12.5 mg BID, FAS): −4.06 (14.48) mmHg
Nighttime Mean DBP (ABPM) CFB to EoT, Mean (SD) (12.5 mg BID, FAS): −6.00 (10.17) mmHg
Nighttime Mean SBP (ABPM) CFB to EoT, Mean (SD) (12.5 mg BID, FAS): −7.50 (16.17) mmHg
LSM Δ with Placebo, 24-hr DBP (ABPM, ANCOVA) (12.5 mg QD): −1.44 mmHg
LSM Δ with Placebo, 24-hr Mean MAP (ABPM, ANCOVA) (12.5 mg QD): −1.62 mmHg
LSM Δ with Placebo, 24-hr SBP (ABPM, ANCOVA) (12.5 mg QD): −1.5 mmHg
LSM Δ with Placebo, Daytime Mean DBP (ABPM, ANCOVA) (12.5 mg QD): −2.47 mmHg
LSM Δ with Placebo, Daytime Mean SBP (ABPM, ANCOVA) (12.5 mg QD): −2.14 mmHg
LSM Δ with Placebo, Mean Central DBP (ABPM, ANCOVA) (12.5 mg QD): −1.29 mmHg
LSM Δ with Placebo, Mean Central Mean BP (ABPM, ANCOVA) (12.5 mg QD): 0.06 mmHg
LSM Δ with Placebo, Mean Central SBP (ABPM, ANCOVA) (12.5 mg QD): 1.92 mmHg
LSM Δ with Placebo, Nighttime Mean DBP (ABPM, ANCOVA) (12.5 mg QD): −1.53 mmHg
LSM Δ with Placebo, Nighttime Mean SBP (ABPM, ANCOVA) (12.5 mg QD): −0.21 mmHg
24-hr Mean DBP (ABPM), Mean (SD) (12.5 mg QD, EoT, FAS): 79.93 (7.33) mmHg
24-hr Mean MAP (ABPM), Mean (SD) (12.5 mg QD, EoT, FAS): 109.47 (10.81) mmHg
24-hr Mean SBP (ABPM), Mean (SD) (12.5 mg QD, EoT, FAS): 139.00 (16.31) mmHg
Daytime Mean DBP (ABPM), Mean (SD) (12.5 mg QD, EoT, FAS): 81.53 (6.79) mmHg
